These results are taken from patent US7419984B2, “Pyrimidines and uses thereof” (Cell Therapeutics, Inc., priority 2002, dated 2008).

The assay has as its target T1, human LPAAT-β (Homo sapiens, UniProt O15120).
T1 construct: the full-length human LPAAT-β cDNA was amplified by PCR; poly-histidine tag (N); made in house; host or cells: Sf9 insect cells (baculovirus, pFastBac HTc); the membrane fraction was used as the enzyme
T1 sequence (O15120 24-278): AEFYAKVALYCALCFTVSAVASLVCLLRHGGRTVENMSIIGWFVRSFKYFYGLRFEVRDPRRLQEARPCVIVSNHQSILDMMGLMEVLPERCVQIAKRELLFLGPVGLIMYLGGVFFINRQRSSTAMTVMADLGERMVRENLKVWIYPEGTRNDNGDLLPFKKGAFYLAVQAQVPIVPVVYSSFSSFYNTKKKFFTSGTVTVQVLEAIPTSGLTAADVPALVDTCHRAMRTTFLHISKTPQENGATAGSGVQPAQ
Description: LPAAT-β cell-free assay. Format: biochemical. To be noted: Sf9 cell membrane overexpressing recombinant LPAAT-β. An excerpt:
For the construction of Baculovirus expression vectors, the full-length human LPAAT-β cDNA was amplified by PCR from the DNA template pCE9.LPAAT-β (West et al., DNA Cell Bid. 16.691-701 (1997)) using the primers 5′-[…] […] […] […]-3′ (olpb1F; SEQ ID NO:1) and 5′-[…] […] […]-3′ (olpb1R; SEQ ID NO:2). The ˜870 bp fragment generated was reamplified by PCR using the primers 5′ […] […] […] […] ATC-3′ (olpb2F; SEQ ID NO:3) and 5′-[…] […] […]-3′ (olpb1R; SEQ ID NO:2). The ˜890 bp fragment generated was then cleaved with Sal I and Xba I for insertion into pFastBac™ HTc vector (Life Technologies, Gaithersberg, M.d.) between the Sal I and Xba I sites for the generation of the plasmid pFB.LPAAT-β. This plasmid was then transformed into E. coli DH10Bac™ (Life Technologies, Gaithersberg, M.d.) for the generation of recombinant Bacmid DNA for transfection in HighFive (Invitrogen, San Diego, Calif.) or SF9 insect cells for the production of recombinant Baculovirus stocks using the protocol described in the Bac-to-Bac® Baculovirus Expression System (Life Technologies, Gaithersberg, M.d.), a eukaryotic expression system for generating recombinant baculovirus through site-specific transposition in E. coli. Viral stocks harvested from the transfected cells can then be used to infect fresh insect cells for the subsequence expression of LPAAT-β fusion protein with a poly-histidine tag and a myc-epitope near its N-terminus. The membrane fraction from these Sf9 cells would be the source of LPAAT enzyme.
For the preparation of membranes from Sf9 Cells, all steps are performed on ice or at 4° C. Sf9 cell pellets (˜10^8 cells) were thawed and resuspended in 1-2 ml of buffer A (20 mM Hepes, pH 7.5, 1 mM DTT, 1 mM EDTA, 20% w/v glycerol, 1 mM Benzamidine, 1 μg/ml soybean trypsin inhibitor (SBTI), 1 μug/ml pepstatin A) w/o DTT but with 1 mM Pefabloc. The cells were lysed by sonication using a Branson Sonifier at output=2, duty cycle=2, 10 pulses each at 10 s. with the tip of small sonicator probe submerged but not touching the walls. DTT was then added to 1 mM from a 1 M stock. The samples were centrifuged at 1500 rpm for 5 min. The low speed supernatant was saved and centrifuged (TLA 100.3 rotor, polycarbonate tubes, 2 ml/tube or 1.5 ml/tube minimum) at 100000×g for 1 hr. The high speed pellet was resuspend in Buffer A with a probe sonicator (10 pulses @ output #2 and duty cycle 20%) as a source of LPAAT enzyme.
LPAAT-β catalyzes the transfer of an acyl group from a donor such as acyl-CoA to LPA. The transfer of the acyl group from acyl-CoA to LPA leads to the release of free CoA, which can be reacted with the thiol reagent, 5,5′-dithiobis(2-nitrobenzoic acid) (DTNB). The reaction between DTNB and the free sulfhydryl group from CoA generates a yellow-colored product, 3-carboxylato-4-nitrothiophenolate (CNP), that absorbs at 413 nm. LPAAT-β derived from Sf9 cell membrane overexpressing LPAAT-β were resuspended in HEPES saline buffer (20 mM HEPES pH 7.5, 150 mM NaCl), 1 mg/ml BSA and 72 μl aliquots were distributed into 96-well microtiter plates. 8 μl of compound of interest at 200 μM dissolved in 100% DMSO was added into each well. […] of 1 mM 18:1-CoA and 1 mM sn-1-18:1 lysoPA was then added to each well to initiate the reaction and allowed to run at room temperature for 25 min. 100 μl of 1 mM DTNB in 100% ethanol was then added to each well to quench the reaction and for color development. The absorbance at 405 nm, measured using a spectrophotometer plate reader, is proportional to the activity of LPAAT-2 in the sample. This colorimetric assay was used for the high throughput screening of LPAAT inhibitors.
The radiometric assay was carried out in Sf9 cell membrane overexpressing LPAAT-β resuspended in HEPES-saline buffer, pH 7.5, 1 mg/ml BSA, 1 mM EDTA and 200 μM [^14C]18:1-CoA and 200 μM sn-1-18:1 lysoPA.

For `COc1ccc(Cl)cc1-c1cc(Nc2ccc3cn[nH]c3c2)nc(C)n1` [Example 40, [6-(5-Chloro-2-methoxy-phenyl)-2-methyl-pyrimidin4-yl]-(1H-indazol-6-yl)-amine], the IC50 (in general, the midpoint of a concentration-inhibition curve) came out at 14 nM. Consider `Cc1ccc(Cl)cc1-c1cc(Nc2ccc([N+](=O)[O-])cc2)nc(N)n1` [Example 108, 6-(5-Chloro-2-methyl-phenyl)-N*4*-(4-nitro-phenyl)-pyrimidine-2,4-diamine], for which the IC50 came to 15 nM. `COc1ccc(Br)cc1-c1cc(Nc2ccc(Cl)cc2)nc(N)n1` [Example 142, 6-(5-Bromo-2-methoxy-phenyl)-N*4*-(4-chloro-phenyl)-pyrimidine-2,4-diamine]: the IC50 amounted to 18 nM. On to `Cc1ccc(C)c(-c2cc(Nc3ccc(Cl)cc3)nc(N)n2)c1` [Example 73, N*4*-(4-Chloro-phenyl)-6-(2,5-dimethyl-phenyl)-pyrimidine-2,4-diamine], for which the IC50 was 160 nM. For `N#Cc1ccc(Nc2cc(-c3cc(Cl)ccc3Cl)nc(N)n2)cc1` [Example 24, 4-[2-Amino-6-(2,5-dichloro-phenyl)-pyrimidin-4-ylamino]-benzonitrile], the IC50 turned out to be 29 nM. Consider `Nc1nc(Nc2ccc(Cl)cc2)cc(-c2cc(Br)ccc2O)n1` [Example 72, 2-[2-Amino-6-(4-chloro-phenylamino)-pyrimidin-4-yl]-4-bromo-phenol], for which the IC50 turned out to be 450 nM. For the compound `CC(=NO)c1ccc(Nc2cc(-c3cc(Cl)cc(Cl)c3Cl)nc(N)n2)cc1` [Example 147, 1-{4-[2-Amino-6-(2,3,5-trichloro-phenyl)-pyrimidin-4-ylamino]-phenyl}-ethanone oxime], the IC50 was 390 nM.

With `Nc1nc(Nc2ccc([N+](=O)[O-])cc2)cc(-c2cc(Br)ccc2OCc2ccccc2)n1` [Example 177, 6-(2-Benzyloxy-5-bromo-phenyl)-N*4*-(4-nitro-phenyl)-pyrimidine-2,4-diamine], the IC50 was 2 nM.

Regarding `CCOC(=O)c1cccc(Nc2cc(-c3cc(Cl)ccc3Cl)nc(N)n2)c1` [Example 170, 3-[2-Amino-6-(2,5-dichloro-phenyl)-pyrimidin-4-ylamino]-benzoic acid ethyl ester], the IC50 was 24 nM. `CCOc1ccc(Br)cc1-c1cc(Nc2ccc(C(C)OC)cc2)nc(N)n1` (stereo not shown) [Example 137, 6-(5-Bromo-2-ethoxy-phenyl)-N*4*-[4-(1-methoxy-ethyl)-phenyl]-pyrimidin-2,4-diamine]: the IC50 was 260 nM. Take `CCc1ccc(Cl)cc1-c1cc(Nc2ccc(Cl)cc2)nc(N)n1` [Example 167, 6-(5-Chloro-2-ethyl-phenyl)-N*-4*-(4-chloro-phenyl)-pyrimidine-2,4-diamine]: the IC50 is 180 nM.

As to `CC(=NO)c1ccc(Nc2cc(-c3cc(Cl)ccc3Cl)nc(N)n2)cc1` [Example 154, 1-{4-[2-Amino-6-(2,5-dichloro-phenyl)-pyrimidin-4-yl-amino]-phenyl}-ethanone oxime], the IC50 was determined as 98 nM.

With `Cc1nc(Nc2ccc(Br)cc2)cc(-c2cc(Cl)ccc2C)n1` [Example 41, [6-(5-Chloro-2-methyl-phenyl)-2-methyl-pyrimidin-4-yl]-(4-bromo-phenyl)-amine], the IC50 amounted to 21 nM. With `CCOc1ccc(Br)cc1-c1cc(Nc2ccc(C(=O)NO)cc2)nc(N)n1` [Example 183, 4-[2-Amino-6-(5-bromo-2-ethoxy-phenyl)-pyrimidin-4-ylamino]-N-hydroxy-benzamide] the figure was 88 nM. Turning to `CCOc1ccc(Br)cc1-c1cc(Nc2ccc(F)cc2)ncn1` [Example 192, [6-(5-Bromo-2-ethoxy-phenyl)-pyrimidin4-yl]-(4-fluoro-phenyl)-amine], the IC50 is 60 nM. As for `Cc1ccc(Cl)cc1-c1cc(Nc2ccc(CCO)cc2)ncn1` [Example 176, 2-{4-[6-(5-Chloro-2-methyl-phenyl)-pyrimidin-4-ylamino]-phenyl}-ethanol], the IC50 came out at 60 nM. `CC(C)Oc1ccc(Br)cc1-c1cc(Nc2ccc(CCO)cc2)nc(N)n1` [Example 141, 2-{4-[2-Amino-6-(5-bromo-2-isopropoxy-phenyl)-pyrimidin-4-ylamino]-phenyl}-ethanol]: the IC50 is 390 nM. Consider `Nc1nc(Nc2ccc(Cl)cc2)cc(-c2cc(Cl)ccc2Cl)n1` [Example 20, N*4*-(4-Chloro-phenyl)-6-(2,5-dichloro-phenyl)-pyrimidine-2,4-diamine], for which the IC50 came out at 20 nM. On to `COc1ccc(Br)cc1-c1cc(Nc2ccc([N+](=O)[O-])cc2)nc(N)n1` [Example 161, 6-(5-Bromo-2-methoxy-phenyl)-N*4*-(4-nitro-phenyl)-pyrimidine-2,4-diamine], for which the IC50 came to 14 nM. Consider `CCOc1ccc(Cl)cc1-c1cc(Nc2ccc(CCCO)cc2)nc(N)n1` [Example 92, 3-{4-[2-Amino-6-(5-chloro-2-ethoxy-phenyl)-pyrimidin4-ylamino]-phenyl}-propan-1-ol], for which the IC50 turned out to be 230 nM. For `CCOc1ccc(Br)cc1-c1cc(Nc2ccc(Cl)cc2)ncn1` [Example 190, [6-(5-Bromo-2-ethoxy-phenyl)-pyrimidin4-yl]-(4-chloro-phenyl)-amine], the IC50 came to 30 nM. For `Nc1nc(Nc2ccc(Cl)cc2)cc(-c2cc(Br)ccc2OCc2ccc([N+](=O)[O-])cc2)n1` [Example 178, 6-[5-Bromo-2-(4-nitro-benzyloxy)-phenyl]-N*4*-(4-chloro-phenyl)-pyrimidine-2,4-diamine] the value was 21 nM; for `Cc1ccc(Br)cc1-c1cc(Nc2ccc(C(F)(F)F)cc2)nc(N)n1` [Example 82, 6-(S-Bromo-2-methyl-phenyl)-N*4*-(4-trifluoromethyl-phenyl)-pyrimidine-2,4-diamine], 100 nM; for `CCOc1ccc(Cl)cc1-c1cc(Nc2ccc([N+](=O)[O-])cc2)nc(N)n1` [Example 46, 6-(5-Chloro-2-ethoxy-phenyl)-N*4*-(4-nitro-phenyl)-pyrimidine-2,4-diamine], 10 nM. Take `CCOc1ccc(Br)cc1-c1cc(Nc2ccc(C(N)=O)cc2)nc(N)n1` [Example 186, 4-[2-Amino-6-(5-bromo-2-ethoxy-phenyl)-pyrimidin4-ylamino]-benzamide]: the half-maximal inhibitory concentration (IC50) is 740 nM. In the case of `Cc1ccc(C)c(-c2cc(Nc3ccc(CCO)cc3)nc(N)n2)c1` [Example 74, 2-{4-[2-Amino-6-(2,5-dimethyl-phenyl)-pyrimidin-4-ylamino]-phenyl}-ethanol], the IC50 turned out to be 550 nM. For the compound `CCOc1ccc(Br)cc1-c1cc(Nc2ccc(CCO)cc2)ncn1` [Example 191, 2-{4-[6-(5-Bromo-2-ethoxy-phenyl)-pyrimidin-4-ylamino]-phenyl}-ethanol], the 50% inhibitory concentration (IC50) stood at 20 nM. `CCOc1ccc(Br)cc1-c1cc(Nc2ccc(C(=O)OC)cc2)nc(N)n1` [Example 61, 4-[2-Amino-6-(5-bromo-2-ethoxy-phenyl)-pyrimidin-4-ylamino]-benzoic acid methyl ester]: the IC50 was determined as 350 nM.
